# From ChEMBL document CHEMBL1201862, “PubChem BioAssay data set” (2004)
# The source made the active and inactive calls.
# Key:
# [1] = molecular target: Voltage-dependent T-type calcium channel subunit alpha-1H (Homo sapiens, UniProt O95180); format: functional;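 further: channel activity triggered by adding a high calcium stimulation buffer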
# [2] = molecular target: T1, Heat shock factor protein 1 (Mus musculus, UniProt P38532); assay: inhibition of MG132-induced HSE-luciferase signal, confirmation, cell-based, NIH3T3, luminescence, dose retest (AID 2382); format: functional;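 further: NIH3T3 fibroblasts with HSF1-driven luciferase reporter stressed by proteasome inhibitor MG132; luminescence from HSF1-driven luciferase expression after 8 hours of MG132 stress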
# T1 sequence (P38532 whole entry): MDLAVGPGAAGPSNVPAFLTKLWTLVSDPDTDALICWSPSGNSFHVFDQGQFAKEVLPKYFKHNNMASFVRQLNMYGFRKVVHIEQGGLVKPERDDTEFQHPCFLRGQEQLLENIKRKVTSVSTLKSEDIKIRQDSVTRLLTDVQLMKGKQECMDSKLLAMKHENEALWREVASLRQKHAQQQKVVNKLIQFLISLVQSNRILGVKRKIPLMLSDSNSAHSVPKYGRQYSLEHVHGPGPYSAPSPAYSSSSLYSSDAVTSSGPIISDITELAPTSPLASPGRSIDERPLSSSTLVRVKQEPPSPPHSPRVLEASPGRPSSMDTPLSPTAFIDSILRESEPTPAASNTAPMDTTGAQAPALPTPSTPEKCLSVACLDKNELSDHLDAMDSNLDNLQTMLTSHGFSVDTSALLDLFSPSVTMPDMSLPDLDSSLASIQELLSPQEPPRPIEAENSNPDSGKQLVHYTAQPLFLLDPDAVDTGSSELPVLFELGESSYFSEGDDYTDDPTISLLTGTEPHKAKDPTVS
# [3] = molecular target: T2, Carboxy-terminal domain RNA polymerase II polypeptide A small phosphatase 1 (Homo sapiens, UniProt Q9GZU7); assay: inhibitors of CTDSP1, concentration-response testing, biochemical assay, absorbance-based, actives from ultra-high-throughput screening (AID 540297); format: functional
# T2 sequence (Q9GZU7 whole entry): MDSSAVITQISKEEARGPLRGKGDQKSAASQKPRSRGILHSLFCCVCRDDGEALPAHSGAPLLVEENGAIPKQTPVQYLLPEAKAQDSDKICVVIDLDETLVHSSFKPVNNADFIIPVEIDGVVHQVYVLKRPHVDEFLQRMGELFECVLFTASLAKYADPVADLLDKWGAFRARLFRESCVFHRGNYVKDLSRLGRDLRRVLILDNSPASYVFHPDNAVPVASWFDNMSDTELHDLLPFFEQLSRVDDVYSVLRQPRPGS
# [4] = Shn3 3'UTR reporter inhibitors, dose response, cell-based, Clone20 osteoblasts, firefly luciferase, cherry-picked (AID 624132); format: functional;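 further: firefly luciferase luminescence from reporter carrying the Shn3 3'UTR in osteoblasts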
# [5] = control 3'UTR Renilla luciferase suppression, dose response, counter-screen for Shn3 inhibitor project, cell-based, Clone20-Shn3RL, cherry-picked (AID 624133); format: functional
# INS1 = assay: beta cell apoptosis inhibitors, cytokine rescue, dose response, luminescence, retest (AID 449756); format: functional, cell-based; conditions: Rattus norvegicus;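 further: cell death triggered by IL-1 beta plus TNF-alpha plus IFN-gamma mixture; protective hits raise ATP signal compared with cytokine alone wells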
# [6] = molecular target: T3, Short transient receptor potential channel 4 (Mus musculus, UniProt Q9QUQ5); assay: mouse TRPC4 channel inhibitors, dose response, cell-based, HEK293 TRPC4/mu-opioid, Fluo-4 calcium (AID 434942); format: functional;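 further: potency of inhibitors blocking the TRPC4 calcium response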
# T3 sequence (Q9QUQ5 whole entry): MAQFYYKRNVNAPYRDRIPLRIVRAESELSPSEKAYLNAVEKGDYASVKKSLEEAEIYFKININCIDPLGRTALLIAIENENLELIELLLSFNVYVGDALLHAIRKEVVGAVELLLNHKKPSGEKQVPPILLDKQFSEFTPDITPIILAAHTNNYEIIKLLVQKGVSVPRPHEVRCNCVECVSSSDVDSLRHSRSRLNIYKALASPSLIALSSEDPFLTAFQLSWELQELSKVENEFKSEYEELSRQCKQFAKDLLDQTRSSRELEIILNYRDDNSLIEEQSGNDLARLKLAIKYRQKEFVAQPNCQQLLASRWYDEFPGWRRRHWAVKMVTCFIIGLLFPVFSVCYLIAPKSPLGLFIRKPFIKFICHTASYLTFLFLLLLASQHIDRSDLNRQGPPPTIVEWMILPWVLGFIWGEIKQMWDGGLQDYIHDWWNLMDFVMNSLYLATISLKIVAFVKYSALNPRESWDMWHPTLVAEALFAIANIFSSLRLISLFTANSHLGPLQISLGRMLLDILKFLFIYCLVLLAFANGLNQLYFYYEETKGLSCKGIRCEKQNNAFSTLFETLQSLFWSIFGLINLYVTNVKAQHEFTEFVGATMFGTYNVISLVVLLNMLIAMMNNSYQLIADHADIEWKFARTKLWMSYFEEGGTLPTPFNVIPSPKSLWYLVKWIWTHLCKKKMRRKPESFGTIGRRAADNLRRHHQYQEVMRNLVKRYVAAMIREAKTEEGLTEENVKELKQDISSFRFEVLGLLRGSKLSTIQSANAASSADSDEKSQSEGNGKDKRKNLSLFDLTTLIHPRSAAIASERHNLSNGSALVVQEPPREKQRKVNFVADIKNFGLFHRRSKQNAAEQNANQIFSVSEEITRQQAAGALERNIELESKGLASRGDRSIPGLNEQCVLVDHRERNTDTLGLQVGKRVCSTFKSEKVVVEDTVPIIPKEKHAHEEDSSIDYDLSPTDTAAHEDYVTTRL
# [7] = molecular target: T4, Calpain-2 catalytic subunit (Sus scrofa, UniProt P43367); assay: pig calpain II inhibitor potency, dose response, biochemical, fluorogenic peptide substrate (AID 1420); format: functional
# T4 sequence (P43367 whole entry): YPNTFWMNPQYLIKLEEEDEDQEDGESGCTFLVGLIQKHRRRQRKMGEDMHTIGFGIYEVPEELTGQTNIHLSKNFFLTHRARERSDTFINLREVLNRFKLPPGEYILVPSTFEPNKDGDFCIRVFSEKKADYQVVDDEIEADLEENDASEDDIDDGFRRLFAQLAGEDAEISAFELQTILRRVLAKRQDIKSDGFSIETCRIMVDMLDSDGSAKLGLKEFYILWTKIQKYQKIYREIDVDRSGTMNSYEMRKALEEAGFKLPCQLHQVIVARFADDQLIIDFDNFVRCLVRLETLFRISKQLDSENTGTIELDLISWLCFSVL
# [8] = growth suppression of beta-catenin-knockout colon cells, dose response, cell-based, HCT116, human colon tumor (AID 1045); format: functional;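 further: HCT116 colon tumor cells with beta catenin knocked out; cells exposed to compound for 60 hours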
# [9] = growth suppression of PTEN-null colon cells, dose response, cell-based, HCT116 PTEN knockout (AID 1047); format: functional;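 further: HCT116 colon tumor cells with PTEN knocked out; cells exposed to compound for 60 hours before readout; potency for loss of cell viability measured by luminescence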
# [10] = molecular target: T5, Polyadenylate-binding protein 1 (Homo sapiens, UniProt P11940); assay: PABP1 MLLE–PAM2 interaction inhibitors, dose response, miRNA deadenylation inhibitor project, biochemical, fluorescence polarization, Cy5-PAM2 peptide, secondary (AID 602260); format: functional; conditions: read-out: IC50_Mean
# [11] = molecular target: T5, Polyadenylate-binding protein 1; assay: PABP1 MLLE–PAM2 binding inhibitor potency, dose response, biochemical, fluorescence polarization, FITC-PAM2 peptide (AID 602259); format: functional; conditions: read-out: IC50_Mean
# [12] = HEp-2 cell cytotoxicity, dose response, cytotoxicity control for RSV inhibitor project, HTS (AID 2410); format: functional; conditions: human respiratory syncytial virus
# [13] = Luminescence Cell-Based Dose Response HTS to Identify Activators of Luciferase Translation or Activity in H4 […] Cells. [Related pubchem assays: 1829 (Project Summary), 1814 (Primary HTS)]; format: functional
# [14] = Luminescence Cell-Based Dose Confirmation HTS to Identify Activators of 5'UTR Stem-Loop Driven Alpha-Synuclein mRNA Translation in H4 Neuroglioblastoma Cells. [Related pubchem assays: 1829 (Project Summary), 1814 (Primary HTS)]; format: functional
# H4 = assay: Luminescence Cell-Based Dose Response HTS to Identify Activators of 5'UTR Stem-Loop Driven Prion Protein mRNA Translation in H4 Neuroglioblastoma Cells. [Related pubchem assays: 1829 (Project Summary), 1814 (Primary HTS)]; format: functional; conditions: Homo sapiens
# [15] = HepG2 cell cytotoxicity, dose response, cytotoxicity control for Shn3 inhibitor project, CellTiter-Glo, cherry-picked (AID 624134); format: functional, cell-based
# Cytochrome P450 3A4 = Cytochrome P450 3A4 (Homo sapiens, UniProt P08684);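 further: CYP3A4 tested as one member of a cytochrome P450 panel screen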
# [16] = molecular target: T6, Microphthalmia-associated transcription factor (Homo sapiens, UniProt O75030); assay: TRPM1 promoter luciferase signal decrease, dose response, MITF inhibitor project, cell-based, SK-MEL-5, cherry-picked, set 3 (AID 493073); format: functional
# T6 sequence (O75030 whole entry): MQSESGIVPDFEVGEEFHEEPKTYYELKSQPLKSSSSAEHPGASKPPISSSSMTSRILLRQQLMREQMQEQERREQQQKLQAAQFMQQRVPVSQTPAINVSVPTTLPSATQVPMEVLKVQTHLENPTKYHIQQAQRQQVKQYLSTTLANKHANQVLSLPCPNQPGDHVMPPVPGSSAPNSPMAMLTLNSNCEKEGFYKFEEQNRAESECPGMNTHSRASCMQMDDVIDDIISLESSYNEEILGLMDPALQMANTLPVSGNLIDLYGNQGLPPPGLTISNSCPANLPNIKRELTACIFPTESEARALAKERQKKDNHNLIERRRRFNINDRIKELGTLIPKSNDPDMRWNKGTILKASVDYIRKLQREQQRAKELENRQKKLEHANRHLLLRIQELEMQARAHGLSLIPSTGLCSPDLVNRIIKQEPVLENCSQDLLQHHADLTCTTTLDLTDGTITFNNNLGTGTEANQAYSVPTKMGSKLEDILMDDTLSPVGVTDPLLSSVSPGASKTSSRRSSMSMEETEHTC
# [17] = ZM109 Env clade C HIV-1 fusion inhibitors, dose response, HeLa effector, CEM target cells, luciferase, cherry-pick (AID 652058); format: functional, cell-based
# T5 sequence (P11940 whole entry): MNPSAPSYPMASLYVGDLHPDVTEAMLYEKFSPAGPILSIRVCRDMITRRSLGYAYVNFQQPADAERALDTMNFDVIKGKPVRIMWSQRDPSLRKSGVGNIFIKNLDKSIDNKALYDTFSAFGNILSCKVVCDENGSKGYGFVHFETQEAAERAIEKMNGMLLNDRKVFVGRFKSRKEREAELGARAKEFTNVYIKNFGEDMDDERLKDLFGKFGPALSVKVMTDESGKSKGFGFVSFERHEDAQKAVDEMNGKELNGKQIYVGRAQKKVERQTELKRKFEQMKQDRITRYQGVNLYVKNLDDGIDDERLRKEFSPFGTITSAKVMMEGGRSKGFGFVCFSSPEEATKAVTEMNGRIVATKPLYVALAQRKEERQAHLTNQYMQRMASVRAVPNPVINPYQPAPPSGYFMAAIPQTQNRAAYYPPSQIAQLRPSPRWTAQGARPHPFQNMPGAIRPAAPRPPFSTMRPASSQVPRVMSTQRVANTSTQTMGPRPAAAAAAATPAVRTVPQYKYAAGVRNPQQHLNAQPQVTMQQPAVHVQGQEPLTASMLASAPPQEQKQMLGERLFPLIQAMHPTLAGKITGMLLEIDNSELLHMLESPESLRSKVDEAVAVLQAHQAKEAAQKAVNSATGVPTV
# Chain of Voltage-dependent T-type calcium channel subunit alpha-1H (O95180 whole entry): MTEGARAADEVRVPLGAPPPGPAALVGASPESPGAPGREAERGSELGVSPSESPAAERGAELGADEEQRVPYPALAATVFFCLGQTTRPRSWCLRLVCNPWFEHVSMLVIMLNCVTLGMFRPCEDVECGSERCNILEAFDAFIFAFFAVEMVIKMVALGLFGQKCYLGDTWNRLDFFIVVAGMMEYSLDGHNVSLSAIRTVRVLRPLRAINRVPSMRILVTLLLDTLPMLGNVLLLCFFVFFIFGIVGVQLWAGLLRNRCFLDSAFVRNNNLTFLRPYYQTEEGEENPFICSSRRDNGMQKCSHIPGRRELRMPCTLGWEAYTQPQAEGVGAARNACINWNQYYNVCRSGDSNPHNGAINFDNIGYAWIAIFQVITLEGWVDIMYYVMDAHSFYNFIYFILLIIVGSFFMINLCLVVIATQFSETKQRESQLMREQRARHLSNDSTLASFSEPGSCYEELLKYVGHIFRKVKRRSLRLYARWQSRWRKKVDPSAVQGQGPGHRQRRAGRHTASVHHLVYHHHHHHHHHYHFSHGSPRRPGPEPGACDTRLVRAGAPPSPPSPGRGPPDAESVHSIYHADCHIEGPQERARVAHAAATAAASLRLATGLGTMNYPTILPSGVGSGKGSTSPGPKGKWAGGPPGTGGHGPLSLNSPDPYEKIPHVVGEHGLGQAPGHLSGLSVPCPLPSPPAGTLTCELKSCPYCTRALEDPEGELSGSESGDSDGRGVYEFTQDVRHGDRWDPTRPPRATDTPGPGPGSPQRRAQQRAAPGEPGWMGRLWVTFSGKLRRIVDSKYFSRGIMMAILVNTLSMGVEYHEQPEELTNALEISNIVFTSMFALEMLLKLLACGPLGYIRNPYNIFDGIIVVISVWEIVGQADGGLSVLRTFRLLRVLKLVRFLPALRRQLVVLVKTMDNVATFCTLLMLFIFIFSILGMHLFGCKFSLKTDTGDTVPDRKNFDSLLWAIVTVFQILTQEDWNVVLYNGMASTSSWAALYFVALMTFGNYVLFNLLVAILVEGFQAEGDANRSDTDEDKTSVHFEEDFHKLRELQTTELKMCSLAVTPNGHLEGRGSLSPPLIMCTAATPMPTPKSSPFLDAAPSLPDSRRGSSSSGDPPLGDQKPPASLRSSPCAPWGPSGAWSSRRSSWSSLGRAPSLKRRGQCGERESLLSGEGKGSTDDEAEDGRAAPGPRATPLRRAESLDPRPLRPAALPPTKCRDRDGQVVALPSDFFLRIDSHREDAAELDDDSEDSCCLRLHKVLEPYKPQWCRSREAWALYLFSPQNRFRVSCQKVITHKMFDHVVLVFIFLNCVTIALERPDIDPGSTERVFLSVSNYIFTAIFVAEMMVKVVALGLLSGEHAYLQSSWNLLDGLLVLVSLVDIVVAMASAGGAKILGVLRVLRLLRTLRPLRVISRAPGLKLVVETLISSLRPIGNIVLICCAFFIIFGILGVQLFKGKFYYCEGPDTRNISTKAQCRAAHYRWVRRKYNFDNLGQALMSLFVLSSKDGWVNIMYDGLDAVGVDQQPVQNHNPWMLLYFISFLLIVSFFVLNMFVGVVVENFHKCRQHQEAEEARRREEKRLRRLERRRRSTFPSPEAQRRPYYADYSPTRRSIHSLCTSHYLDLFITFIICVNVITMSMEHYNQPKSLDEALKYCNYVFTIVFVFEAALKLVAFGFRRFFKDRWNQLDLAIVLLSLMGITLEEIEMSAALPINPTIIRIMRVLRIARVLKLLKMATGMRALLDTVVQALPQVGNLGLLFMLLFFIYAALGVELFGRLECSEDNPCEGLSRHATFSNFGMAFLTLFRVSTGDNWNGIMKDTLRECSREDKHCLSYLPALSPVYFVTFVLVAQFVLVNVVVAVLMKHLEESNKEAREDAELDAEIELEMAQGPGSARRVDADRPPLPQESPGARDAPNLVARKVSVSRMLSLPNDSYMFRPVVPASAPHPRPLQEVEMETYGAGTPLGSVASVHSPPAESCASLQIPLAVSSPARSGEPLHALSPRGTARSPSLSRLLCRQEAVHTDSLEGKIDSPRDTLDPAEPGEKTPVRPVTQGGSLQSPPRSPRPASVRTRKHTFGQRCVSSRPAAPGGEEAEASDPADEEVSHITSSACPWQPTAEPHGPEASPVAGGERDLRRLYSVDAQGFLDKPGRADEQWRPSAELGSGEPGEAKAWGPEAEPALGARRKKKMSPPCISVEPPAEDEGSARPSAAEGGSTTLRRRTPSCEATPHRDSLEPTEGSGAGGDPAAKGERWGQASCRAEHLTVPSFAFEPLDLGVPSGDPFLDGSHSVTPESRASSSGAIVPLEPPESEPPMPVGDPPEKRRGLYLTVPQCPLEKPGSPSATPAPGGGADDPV
# Chain of Cytochrome P450 3A4 (P08684 whole entry): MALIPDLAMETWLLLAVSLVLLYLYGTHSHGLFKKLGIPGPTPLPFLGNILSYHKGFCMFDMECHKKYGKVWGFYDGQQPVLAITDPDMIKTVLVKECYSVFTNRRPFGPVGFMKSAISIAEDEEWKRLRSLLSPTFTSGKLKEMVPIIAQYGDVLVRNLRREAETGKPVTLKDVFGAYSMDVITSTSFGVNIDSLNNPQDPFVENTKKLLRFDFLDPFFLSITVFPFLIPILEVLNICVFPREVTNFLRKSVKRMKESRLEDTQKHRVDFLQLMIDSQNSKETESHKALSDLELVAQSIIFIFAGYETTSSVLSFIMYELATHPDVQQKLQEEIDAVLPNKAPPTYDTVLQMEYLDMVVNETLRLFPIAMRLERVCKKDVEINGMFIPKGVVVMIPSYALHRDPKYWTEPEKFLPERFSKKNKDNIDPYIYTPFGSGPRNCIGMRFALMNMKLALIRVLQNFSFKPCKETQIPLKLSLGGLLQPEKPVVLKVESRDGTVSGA
compound,measurement,setting,value
c1ccc(-c2noc(CSc3nnc(Cc4cccs4)n3-c3ccccc3)n2)cc1,EC50,[1],4.16 µM (active)
O=C(C1CCCN(S(=O)(=O)c2ccc(Cl)cc2)C1)N(Cc1cccs1)C1CC1 (stereo not given),EC50,[2],> 195 µM (not active)
same,EC50,[1],6.78 µM (active)
Cc1ccc(NC(=O)c2cc(-c3ccc(C)c(C)c3O)n[nH]2)cc1C,IC50,[3],8.08 µM (active)
CN1/C(=C\C(=O)CN2C(=O)NC3(CCCCCC3)C2=O)C(C)(C)c2ccccc21,AC50,[4],2.66 µM (active)
same,AC50,[5],12.3 µM (active)
same,EC50,[1],27.4 µM (active)
same,AC50,INS1,4.56 µM (active)
COc1ccc(O)c(C(=O)c2cnc3c(c2)c(=O)[nH]c(=O)n3C)c1,EC50,[6],1.5 µM (active)
O=C(c1cc2sccc2n1Cc1ccccc1)N1CCCc2ccccc21,EC50,[1],5.98 µM (active)
Cc1ccccc1Cn1c(=O)n(CC2CCC(C(=O)NCCc3ccccc3)CC2)c(=O)c2ccccc21 (stereo not given),IC50,[7],20.7 µM (not active)
same,EC50,[8],17 µM (active)
same,EC50,[9],13.3 µM (active)
N#CCCN(C(=O)CSc1ccc2c(c1)OCCO2)c1ccccc1,IC50,[10],> 66 µM (inactive)
same,IC50,[11],> 66 µM (inactive)
CC1CC(C)CN(C(=O)Cn2c(=O)n(CCCCC(=O)NCc3ccco3)c(=O)c3ccccc32)C1 (stereo not given),IC50,[7],> 50 µM (not active)
CCCc1nc2ccccc2n1CCOc1ccccc1,EC50,[1],8.61 µM (active)
COc1cccc(Nc2nc(N)c([N+](=O)[O-])c(NCc3ccco3)n2)c1,IC50,[7],7.89 µM (not active)
same,CC50,[12],15.8 µM (active)
Cn1c(CSc2nc3ccccc3s2)nc2ccccc21,EC50,[1],17.4 µM (active)
same,EC50,[13],2.94 µM (active)
same,EC50,[14],43.2 µM (active)
same,EC50,H4,19.9 µM (active)
Cc1cc(=O)oc2cc(NC(=O)c3ccc(OC(F)F)cc3)ccc12,IC50,[3],10.2 µM (active)
CCOC(=O)C1CCCN(C(=O)c2ccccc2SCCOC)C1 (stereo not given),IC50,[10],> 66 µM (inactive)
same,IC50,[11],> 66 µM (inactive)
N#CC(c1cccc(C(F)(F)F)c1)(c1ncc(C(F)(F)F)cc1Cl)N1CCOCC1 (stereo not given),EC50,[1],2.49 µM (active)
O=C(CN1CCCCCCC1)Nc1ccc(Cl)cc1Cl,IC50,[7],4.92 µM (not active)
COc1ccc(C(=O)OCC(=O)NCc2ccco2)cc1OC,IC50,[3],9.73 µM (active)
CCN(CC)S(=O)(=O)c1ccc(N(C)Cc2ccc(C(F)(F)F)cc2)nc1,AC50,[4],5.85 µM (active)
same,AC50,[5],25.9 µM (active)
same,AC50,[15],41.1 µM (active)
same,EC50,[1],10.4 µM (active)
c1ccc2c(c1)nnn2Cc1nnc2sc(-c3ccc4c(c3)OCCO4)nn12,IC50,[10],> 66 µM (inactive)
same,IC50,[11],> 66 µM (inactive)
CCOc1cc(CNCc2cccs2)ccc1OCC(=O)NC(C)(C)C,EC50,[6],2.11 µM (active)
Cc1nc(N)nc(S)c1CCCNc1ccccc1,AC50,Cytochrome P450 3A4,6.31 µM (inconclusive)
same,IC50,[10],> 66 µM (inactive)
same,IC50,[11],> 66 µM (inactive)
NC(=O)c1cc([N+](=O)[O-])ccc1NCc1ccc(N)cc1,AC50,[16],1.41 µM (active)
N=c1c(C(=O)NCc2ccco2)cc2c(=O)n3ccccc3nc2n1CC1CCCO1 (stereo not given),IC50,[10],> 66 µM (inactive)
same,IC50,[11],39.5 µM (inactive)
O=C(NC(Sc1ccc(Cl)cc1)C(=O)O)c1ccccc1 (stereo not given),IC50,[10],> 66 µM (inactive)
same,IC50,[11],> 66 µM (inactive)
O=C(C[C@H]1C[C@@H]2c3cc(NC(=O)Nc4ccc(F)cc4)ccc3O[C@@H]2[C@@H](CO)O1)NCC1CC1,AC50,[17],41.4 µM (active)
